Measured values: article PMC12530846, “Development of Novel Anticancer Pyrazolopyrimidinones Targeting Glioblastoma” (Chemmedchem, 2025)

Experiments:
Type in all cases: cell-based, human
[1] = system: U‐251 MG and HEK293 cells; assay: Statistical comparison of dose–response in U‐251 MG versus HEK293 (selectivity, HIT criteria); conditions: for Selectivity for cancer cells with IC50 < 50 [µM]‐Yes/No: HEK293 IC50 higher than U‐251 MG IC50, U‐251 MG IC50 below 50 µM; for All criteria met -Yes/No: HIT criteria and statistical testing, Table S1
HEK293 cells = assay: MTT cell viability assay, noncancerous HEK293 cells, 5 days treatment; conditions: for IC50: 5 days treatment, 100–0 µM; for cytotoxicity / biological response in HEK293, in words: 5 days, up to 100 µM, threshold 50 µM
Protocol: (§1) Dose–response curves for each of the pyrazolo[1,5‐α]pyrimidinones were performed to determine the cytotoxic effect of the compounds on a cancerous, U‐251 MG cell line and a noncancerous, HEK293 cell line. The synthesized pyrazolopyrimidinones were dissolved in DMSO (Merck) to obtain a stock solution which was stored at −20 °C. […] U‐251 MG and HEK293 cells were seeded at a density of 2 x 10^3 cells per well (100 μL) in a 96‐well plate (Sarstedt) and incubated for 24 h prior to each treatment to allow for cell adhesion. The stock solution was diluted in media to working concentrations of 100, 75, 50, 25, 10, 5, and 0.1 μM. Media on the seeded cells was then replaced with the working concentrations of the compound or the controls in a 96‐well plate (100 μL). The treated plate was incubated at 37 °C in the humidified incubator for 5 days. Cell viability was assessed after 5 days using the MTT assay. Dose–response curves were then plotted relative to the positive control whereby cells were treated 20% DMSO and a negative control whereby cells were maintained in fresh DMEM.
(§2) To determine the extent of the cytotoxic effect of the pyrazolopyrimidinone on each cell line, the cell viability at each working concentration was determined via the MTT assay (Merck). The working solution of MTT used was 5 mg MTT per 1 ml of PBS diluted in 9 ml of media. After 5 days of incubation, the treatment was removed from each of the wells and replaced with 100 μL of fresh MTT solution. The plate was then incubated for 3 h at 37 °C in a humidified incubator to allow the reduction of the yellow tetrazolium salt to purple formazan crystals. After the incubation, the MTT solution was removed from the wells and replaced with 100 μL of DMSO for 15 min to dissolve the formazan crystals. The absorbance was read at 570 nm using a spectrophotometric microplate reader (Thermo Fisher Scientific).
(§3) Each of the experiments was performed at least three independent times, with a minimum of six technical replicates per experiment. Statistical analysis was carried out using GraphPad Prism version 8.0.0 (GraphPad Softwares, Inc.). Curve fitting and the IC50 values were obtained through the dose–response curves using nonlinear regression. To determine if the dose–response curves were statistically distinct and not overlapping, extra sum‐of‐squares F‐test was used, and a p‐value was obtained. The effect of compound treatment on both cell lines was statistically compared via two‐way ANOVA with Tukey's post‐test. The CytExpert (Beckman Coulter) software was used for flow cytometry analysis. Graphs represent the % dead cells whereby the total number of dead cells was divided by the total cell population. The statistical significance of the flow cytometry results was determined via one‐way analysis of variance (ANOVA) with Dunnett's T3 multiple comparison post‐test. Data is presented as the mean ± standard error of mean (SEM). Summary of results from statistical analysis reports p‐values as follows: ≥0.05 (ns), 0.01–0.05 (*), 0.001–0.01 (**), […], and <0.0001(****).

U‐251 MG cells [2] = assay: MTT cell viability assay, U‐251 MG glioblastoma cells, 5 days treatment; conditions: for IC50: 5 days treatment, 100–0 µM; for cytotoxicity / biological effect on U‐251 MG, in words: 5 days, up to 100 µM
Protocol: as §1, §2, §3

U‐251 MG cells [3] = assay: JC‐1 flow cytometry, mitochondrial membrane depolarization / apoptosis; conditions: 5 days; for apoptosis observed (JC-1): example analysis, negative control 8.64 %; for JC-1: significance of cell death, Neg Ctrl v HNT / JC-1: significance of cell death, Neg Ctrl v 50 µM: U‐251 MG; for JC-1: significance of cell death, Neg Ctrl v 50 µM: highest toxic concentration 50 µM
Protocol: JC‐1 dye forms aggregates in healthy mitochondria which changes the fluorescent property of the dye. […] Stock solutions of JC‐1 dye (Merck) were prepared at 1 mg/mL in DMSO and stored at −20 °C. U‐251 MG cells were seeded in 6‐well plates (Sarstedt) at a seeding density of 2 x 10^4 cells per well (1000μL) after which cells were treated with drug concentrations (highest toxic, IC50, nontoxic). After 5 days incubation, the compound and wash step with PBS was collected in falcon tubes. The cells were then harvested by trypsinization (500 μL), incubated for a period of 6 min, neutralized with media (1000 μL), and pelleted at 1200rpm for 5 min. A JC‐1 working solution of 2 μg/mL was made up in DMEM and was light protected. The cell pellet was resuspended and stained with 2 μg/mL JC‐1 dye and incubated and protected from the light for a period of 10 min. Cells were then centrifuged at 1200rpm for 5 min. The supernatant was removed, and cells were washed with 1 mL of sterile PBS. This was repeated twice. […] Cells were also treated using controls whereby the positive control used was DMEM and 20% DMSO and the negative control used was fresh media. The cells were then analyzed using flow cytometry (Beckmann Coulter, CytExpert version 2.4.0.28). Fluorescence was measured using FL1 (FITC) (530 nm) and FL2 (PE) (595 nm) channels with emission.
as §3

U‐251 MG cells [4] = assay: Propidium iodide (PI) flow cytometry, cell membrane permeabilization; conditions: 5 days; for PI: significance of cell death, Neg Ctrl v HNT: highest non-toxic concentration
Protocol: Propidium iodide (PI) is a DNA staining, cell membrane impermeable dye which was used to assess cell death via loss of membrane integrity and is used to indicate necrotic or late apoptotic cells. Stock solutions of PI dye (Merck, Ireland) were prepared at 10 μg/mL in PBS and stored at −20 °C. U‐251 MG cells were seeded in 96‐well plates at a seeding density of 2 x 10^3 cells per well (100 μL), as previously stated. […] Subsequently, the compound was collected in 15 ml falcon tubes. Cells were washed with PBS (100 μL), and the PBS was collected in corresponding tubes to ensure all cells are collected. The cells were collected using 0.25% trypsin‐EDTA (50 μL) with a 6‐min incubation and media neutralization (100 μL). Each tube was centrifuged at 1200rpm for 5 min to obtain a pellet. The supernatant was removed, and the pellet was resuspended in PBS and transferred to an Eppendorf tube. Ten microliters of PI stain (2.5 μg/ml) was added to the Eppendorf tubes, and the tubes were incubated for a period of 15 min. Cells were also treated using controls whereby the positive control used was DMEM and 20% DMSO and the negative control used was fresh media. The cells were then analyzed using flow cytometry (Beckmann Coulter, CytExpert version 2.4.0.28). Fluorescence was measured using the FL2 channel. PI was detected in the red channel which is R‐phycoerythrin (PE‐Cy5). PE was used in combination with fluorescein isothiocyanate (FITC) and is excited at a wavelength of 488 nm.
as §3

[5] = highest non-toxic concentration

Row | SMILES | Selectivity for cancer cells with IC50 < 50 [µM]‐Yes/No [1] | cytotoxicity / biological response in HEK293, in words (HEK293 cells) | IC50 (HEK293 cells; Homo sapiens, HEK293, 120 h) | IC50 (U‐251 MG cells [2]; Homo sapiens, U-251, 120 h) | All criteria met -Yes/No [1] | also measured
1 | O=c1cc(-c2cc(C(F)(F)F)cc(C(F)(F)F)c2)[nH]c2cc(-c3ccc(Cl)cc3)nn12 [Compound 8] | Yes | did not elicit any biological response | > 50 µM | < 30 µM |  | IC50 (HEK293 cells): 52.4 µM; IC50 (U‐251 MG cells [2]): 17.3 µM
2 | O=c1cc(-c2cc(C(F)(F)F)cc(C(F)(F)F)c2)[nH]c2cc(-c3ccco3)nn12 [Compound 13] |  | no cytotoxicity |  |  | No | cytotoxicity / biological effect on U‐251 MG, in words (U‐251 MG cells [2]): no cytotoxicity
3 | Cc1cc(=O)n2nc(C(C)C)cc2[nH]1 [Compound 1] | No |  |  |  |  | 
4 | Cc1cc(=O)n2nc(-c3ccccc3)cc2[nH]1 [Compound 14] |  | did not elicit a biological effect |  | 81.5 µM | No | cytotoxicity / biological effect on U‐251 MG, in words (U‐251 MG cells [2]): did not elicit a biological effect
5 | O=c1cc(-c2cc(C(F)(F)F)cc(C(F)(F)F)c2)[nH]c2cc(-c3ccccc3)nn12 [Compound 5] | Yes | did not elicit any biological response |  |  | Yes | apoptosis observed (JC-1) (U‐251 MG cells [3]; IC50 concentration): 15.55%; apoptosis observed (JC-1) (U‐251 MG cells [3]; [5]): 14.34%; apoptosis observed (JC-1) (U‐251 MG cells [3]; highest toxic concentration): 52.97%; cell membrane permeabilization‐dependent cell death (PI), in words (U‐251 MG cells [4]): did not induce cell death by cell wall permeabilization
6 | O=c1cc(-c2cc(C(F)(F)F)cc(C(F)(F)F)c2)[nH]c2cc(-c3ccc(Br)cc3)nn12 [Compound 7] | Yes | did not elicit any biological response | > 50 µM | < 50 µM | Yes | JC-1: significance of cell death, Neg Ctrl v HNT (U‐251 MG cells [3]; [5]): ns (≥0.05 (ns)); JC-1: significance of cell death, Neg Ctrl v 50 µM (U‐251 MG cells [3]): **** (<0.0001(****)); IC50 (HEK293 cells): 60.9 µM; cell membrane permeabilization‐dependent cell death (PI), in words (U‐251 MG cells [4]): significant cell membrane permeabilization‐dependent cell death; PI: significance of cell death, Neg Ctrl v HNT (U‐251 MG cells [4]): * (0.01 to 0.05 (*)); IC50 (U‐251 MG cells [2]): 29.8 µM
7 | CCc1cc(=O)n2nc(C(C)C)cc2[nH]1 [Compound 19] |  |  |  | 154 µM | No | 
8 | Cc1cc2[nH]c(C)cc(=O)n2n1 [Compound 16] |  |  |  |  | No | 
9 | O=c1cc(-c2cc(C(F)(F)F)cc(C(F)(F)F)c2)[nH]c2cc(-c3cccc(Cl)c3)nn12 [Compound 12] |  |  | < 30 µM | 21.7 µM | No | IC50 (HEK293 cells): 29.5 µM
10 | CC(C)c1cc2[nH]c(C(C)C)cc(=O)n2n1 [Compound 18] | No |  | 118 µM | 170 µM | No | 
11 | COc1ccc(-c2cc3[nH]c(-c4cc(C(F)(F)F)cc(C(F)(F)F)c4)cc(=O)n3n2)cc1 [Compound 11] | No |  | < 30 µM | 23.5 µM | No | IC50 (HEK293 cells): 29.5 µM
12 | CC(C)c1cc2[nH]c(-c3cc(C(F)(F)F)cc(C(F)(F)F)c3)cc(=O)n2n1 [Compound 4] | No |  | 7.38 µM | < 20 µM |  | IC50 (U‐251 MG cells [2]): 14 µM
13 | CC(C)(C)c1cc2[nH]c(-c3ccccc3)cc(=O)n2n1 [Compound 17] |  |  |  | 76.6 µM | No | 
14 | O=c1cc(-c2cc(C(F)(F)F)cc(C(F)(F)F)c2)[nH]c2cc(-c3cccc([N+](=O)[O-])c3)nn12 [Compound 23] | Yes |  | 60.3 µM | 29.6 µM |  | IC50 (U‐251 MG cells [2]): 23.2 µM
15 | O=c1cc(-c2cc(C(F)(F)F)cc(C(F)(F)F)c2)[nH]c2cc(-c3cccc(C(F)(F)F)c3)nn12 [Compound 20] |  |  |  | 31 µM | No | 
16 | O=c1cc(-c2cc(C(F)(F)F)cc(C(F)(F)F)c2)[nH]c2cc(-c3ccc([N+](=O)[O-])cc3)nn12 [Compound 10] | Yes | did not elicit any biological response | > 50 µM |  | Yes | JC-1: significance of cell death, Neg Ctrl v HNT (U‐251 MG cells [3]; [5]): * (0.01 to 0.05 (*)); JC-1: significance of cell death, Neg Ctrl v 50 µM (U‐251 MG cells [3]): *** (0.001 to 0.01(***)); IC50 (HEK293 cells): 73.8 µM; cell membrane permeabilization‐dependent cell death (PI), in words (U‐251 MG cells [4]): significant cell membrane permeabilization‐dependent cell death; PI: significance of cell death, Neg Ctrl v HNT (U‐251 MG cells [4]): ns (≥0.05 (ns))
17 | O=c1cc(-c2cc(C(F)(F)F)cc(C(F)(F)F)c2)[nH]c2cc(-c3ccc(F)cc3)nn12 [Compound 6] | No |  | 68.2 µM | 52.2 µM |  | 
18 | Cc1cc(C)cc(-c2cc(=O)n3nc(C(C)C)cc3[nH]2)c1 [Compound 3] | No |  | 6.52 µM |  |  | 
19 | CC(C)c1cc2[nH]c(-c3ccccc3)cc(=O)n2n1 [Compound 2] | No |  | 9.8 µM | < 20 µM |  | IC50 (U‐251 MG cells [2]): 20.6 µM
